Laboratory results from patent US20240279207A1, “SUBSTITUTED ACYL SULFONAMIDES FOR TREATING CANCER” (The Broad Institute, Inc., priority 2020, published 2024).
Like-named read-outs stand apart in the source and are kept apart here.

Experiments:
ZR-75-1 cells = test: ZR-75-1 proliferation assay; assay type: cell-based; conditions: Alamar Blue, read-out: ZR75-1 proliferation assay, EC50 [M] (arithmetic mean)
Text: (§1) For compound characterization cell survival assays were routinely run in two cell lines. ZR-75-1 is a breast carcinoma cell line containing a focal KAT6A amplification and high KAT6A protein expression. Proliferation of this cell line is inhibited upon treatment with KAT6A inhibitors. As a negative control cell line MDA-MB-436 were used. These cells carry a […] deletion of the KAT6A gene, have a low KAT6A protein expression and are not growth inhibited upon treatment with KAT6A inhibitors.
(§2) For measurements cell lines were plated at the below indicated concentration per […] in 96-well plates in a humidified incubator at 37° C. and 5% CO2.
ZR-75-1 (ATCC, CRL-1500; breast carcinoma); 3000 cells per well; culture medium: RPMI 1640 (Biochrom #FG 1215) medium containing 2.5% FBS (Biochrom #S0615).
(§3) Each sample was prepared as triplicate and rim wells were excluded. Plates were incubated at 37° C. and 5% CO2 for 144 h. Cell viability was measured by adding 10 μL of Alamar Blue Reagent (Invitrogen #DAL 1100) and plates were incubated for 2 h at 37° C. and 5% CO2. Fluorescence was measured at 590 nm wavelength with a Tecan Spark or Victor X3 MTP-Reader (PerkinElmer).

[1] = target: T1, Recombinant human His-tagged Kat6a protein (amino acids 194-810) (Homo sapiens, UniProt Q92794); test: Kat6a activity assay (TR-FRET, acetylation of Histone-H4-derived peptide); assay type: biochemical; conditions: 60 mins at 22° C., 220 nM H4 peptide, 600 nM Acetyl Coenzyme A, read-out: KAT6A - DPF/HAT domain IC50 [mol/l] (arithmetic mean)
T1 construct: Kat6a protein (amino acids 194-810); His

LCLC97TM1 = LCLC97TM1 proliferation assay; assay type: cell-based; conditions: read-out: LCLC97TM1 proliferation assay, EC50 [M] (arithmetic mean)
MDA-MB-436 cells = test: MDA-MB-436 proliferation assay (negative control cell line); assay type: cell-based; conditions: 144 h, Alamar Blue, read-out: MDA-MB-436 proliferation assay, EC50 [M] (arithmetic mean)
Text: as §1, §2
MDA-MB-436 (CLS, 300278; breast adenocarcinoma); 3000 cells per well; culture medium: DMEM/Ham's F12 (Biochrom #FG 4815) medium containing 2.5% FBS (Biochrom #S0615).
as §3

[2] = system: ESR1 transcription in MVLN cells; test: MVLN reporter assay: repression of ESR1 transcription (luciferase signal); assay type: cell-based; conditions: luciferase signal after 24 h, read-out: MVLN reporter assay, IC50 [M] (arithmetic mean)
Summary of the method: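 To control for cell loss, Alamar Blue (2 h, 530/590 nm) precedes the 24 h luciferase measurement. The reporter is an ERE from the Xenopus vitellogenin A2 gene driving luciferase, stably transfected into ER-expressing MVLN cells; duplicate samples.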

[3] = Homo sapiens, LCLC-97TM1, LCLC97TM1

T1 sequence (Q92794 194-810): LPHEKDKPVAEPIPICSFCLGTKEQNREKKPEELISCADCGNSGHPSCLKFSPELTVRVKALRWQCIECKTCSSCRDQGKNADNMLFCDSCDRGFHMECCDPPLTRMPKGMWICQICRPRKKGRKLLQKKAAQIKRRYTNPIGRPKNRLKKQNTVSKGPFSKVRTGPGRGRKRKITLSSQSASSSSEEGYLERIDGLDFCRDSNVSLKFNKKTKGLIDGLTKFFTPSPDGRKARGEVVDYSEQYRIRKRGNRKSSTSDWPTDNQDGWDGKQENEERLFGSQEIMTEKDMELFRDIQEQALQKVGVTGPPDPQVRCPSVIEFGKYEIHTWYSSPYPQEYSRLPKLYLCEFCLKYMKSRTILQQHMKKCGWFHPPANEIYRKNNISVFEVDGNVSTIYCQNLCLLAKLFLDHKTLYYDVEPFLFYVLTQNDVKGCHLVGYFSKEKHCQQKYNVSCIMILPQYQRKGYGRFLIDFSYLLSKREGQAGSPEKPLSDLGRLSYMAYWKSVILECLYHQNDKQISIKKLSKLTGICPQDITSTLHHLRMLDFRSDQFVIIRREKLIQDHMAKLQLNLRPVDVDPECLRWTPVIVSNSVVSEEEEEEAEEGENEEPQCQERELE

IC50 [1] [nM] | EC50 (MDA-MB-436 cells) [M] | IC50 [2] [M] | EC50 (MDA-MB-436 cells; Homo sapiens) [M] | IC50 ([2]; Homo sapiens, MVLN, 24 h) [M] | SMILES | EC50 (ZR-75-1 cells; 144 h) [M] | EC50 (LCLC97TM1; LCLC97TM1) [M] | EC50 (ZR-75-1 cells; Homo sapiens, ZR-75-1, 144 h) [M] | EC50 (LCLC97TM1; [3]) [M]
26.5 |  |  | > 2e-05 | 5.86e-08 | CCOc1ccc(C(F)(F)F)cc1S(=O)(=O)NC(=O)c1cc2c(F)cc(N3CCC3)cc2o1 [Example 209, 6-(azetidin-1-yl)-N-[2-ethoxy-5-(trifluoromethyl)phenyl]sulfonyl-4-fluoro-benzofuran-2-carboxamide] |  |  | 4.59e-08 | 6.32e-07
1090 |  |  | > 2e-05 | 5.92e-06 | Cc1ccc2cccc(S(=O)(=O)NC(=O)c3cc4c(F)cc(N5CCC5C(C)(C)O)cc4o3)c2n1 (racemic) [Example 161, 4-Fluoro-6-[2-(1-hydroxy-1-methyl-ethyl)azetidin-1-yl]-N-[(2-methyl-8-quinolyl)sulfonyl]benzofuran-2-carboxamide (rac)] |  |  | 7.56e-06 | > 2e-05
203 |  |  | > 2e-05 | 1.45e-06 | Cc1ccc2cccc(S(=O)(=O)NC(=O)c3cc4c(F)cc(N5CCC5C(F)F)cc4o3)c2n1 (racemic) [Example 160, 6-[2-(Difluoromethyl)azetidin-1-yl]-4-fluoro-N-(2-methylquinoline-8-sulfonyl)-1-benzofuran-2-carboxamide (rac)] |  |  | 4.34e-06 | > 2e-05
862 |  |  | > 2e-05 | 3.67e-06 | CCOc1ccccc1S(=O)(=O)NC(=O)c1cc2c(F)cc(N3CCC3C(F)F)cc2o1 (racemic) [Example 163, 6-[2-(Difluoromethyl)azetidin-1-yl]-N-(2-ethoxybenzene-1-sulfonyl)-4-fluoro-1-benzofuran-2-carboxamide (rac)] |  |  | 6.67e-06 | > 2e-05
15.7 |  |  | > 2e-05 | 6.68e-08 | CCc1ccc2cccc(S(=O)(=O)NC(=O)c3cc4c(F)cc(N5CCC5)cc4o3)c2n1 [Example 171, 6-(Azetidin-1-yl)-N-(2-ethylquinoline-8-sulfonyl)-4-fluoro-1-benzofuran-2-carboxamide] |  |  | 3.98e-07 | 4.4e-07
8.25 |  |  | > 2e-05 | 4.72e-08 | COc1ccc(C2=CCOCC2)cc1S(=O)(=O)NC(=O)c1cc2c(F)cc(N3CCC3)cc2o1 [Example 196, 6-(azetidin-1-yl)-N-[5-(3,6-dihydro-2H-pyran-4-yl)-2-methoxybenzene-1-sulfonyl]-4-fluoro-1-benzofuran-2-carboxamide] |  |  | 1.44e-07 | 8.1e-07
5.4 |  |  | > 2e-05 | 4.82e-08 | CC(C)(C)c1ccc(OCC(F)(F)F)c(S(=O)(=O)NC(=O)c2cc3c(F)cc(N4CCC4)cc3o2)c1 [Example 227, 6-(Azetidin-1-yl)-N-[(5-(tert-butyl)-2-(2,2,2-trifluoroethoxy)phenyl)sulfonyl]-4-fluorobenzofuran-2-carboxamide] |  |  | 7.19e-08 | 1.22e-07

Further lines, the molecule ahead of its results:

SMILES | IC50 [1] [nM] | EC50 (MDA-MB-436 cells) [M] | IC50 [2] [M] | EC50 (MDA-MB-436 cells; Homo sapiens) [M] | IC50 ([2]; Homo sapiens, MVLN, 24 h) [M] | EC50 (ZR-75-1 cells; 144 h) [M] | EC50 (LCLC97TM1; LCLC97TM1) [M] | EC50 (ZR-75-1 cells; Homo sapiens, ZR-75-1, 144 h) [M] | EC50 (LCLC97TM1; [3]) [M]
CC(Oc1ccccc1S(=O)(=O)NC(=O)c1cc2c(F)cc(N3CCC3)cc2o1)C(F)(F)F (single isomer, unassigned) [Example 15] | 47.2 | > 2e-05 | 7.55e-08 |  |  | 2.46e-07 | 6.28e-07 |  | 
O=C(NS(=O)(=O)c1ccccc1-c1ccccc1)c1cc2ccc(N3CC(F)(F)C3)cc2o1 [Example 119, N-([1,1′-biphenyl]-2-sulfonyl)-6-(3,3-difluoroazetidin-1-yl)-1-benzofuran-2-carboxamide] | 1100 |  |  | > 2e-05 | 3.04e-06 |  |  | 3.7e-06 | 1.46e-05
CCc1ccc(OC2CCCC2)c(S(=O)(=O)NC(=O)c2cc3c(F)cc(N4CCC4)cc3o2)c1 [Example 3, 6-(Azetidin-1-yl)-N-[2-(cyclopentyloxy)-5-ethylbenzene-1-sulfonyl]-4-fluoro-1-benzofuran-2-carboxamide] | 8.1 |  |  | > 2e-05 | 5.25e-08 |  |  | 2.32e-07 | 1.11e-06
O=C(NS(=O)(=O)c1cccc2ccc(Cl)nc12)c1cc2c(F)cc(N3CCC3)cc2o1 [Example 132, 6-(Azetidin-1-yl)-N-(2-chloroquinoline-8-sulfonyl)-4-fluoro-1-benzofuran-2-carboxamide] | 14.1 |  |  | 1.22e-05 | 5.41e-08 |  |  | 1.08e-07 | 1.36e-07
CCOc1ccc(C)cc1S(=O)(=O)NC(=O)c1cc2c(F)cc(N3CCC3)cc2o1 [Example 6, 6-(Azetidin-1-yl)-N-(2-ethoxy-5-methylbenzene-1-sulfonyl)-4-fluoro-1-benzofuran-2-carboxamide] | 34.9 |  |  | > 2e-05 | 7.45e-08 |  |  | 3.28e-08 | 3.12e-07
O=C(NS(=O)(=O)c1ccccc1-c1ccccc1)c1cc2c(F)cc(N3CCC3)cc2o1 [Example 20, Sodium {[6-(azetidin-1-yl)-4-fluoro-1-benzofuran-2-yl]carbonyl}([biphenyl]-2-ylsulfonyl)azanide] | 34.2 | > 2e-05 | 3.03e-07 |  |  |  |  | 2.87e-07 | 1.42e-06
CC(Oc1ccccc1S(=O)(=O)NC(=O)c1cc2c(F)cc(N3CCC3)cc2o1)C(F)(F)F (single isomer, unassigned) [Example 14] | 28.1 |  |  | > 2e-05 | 6.93e-08 | 9.93e-08 | 1.39e-06 |  | 
CCC(C)Oc1ccc(C)cc1S(=O)(=O)NC(=O)c1cc2c(F)cc(N3CCC3)cc2o1 (centres unmarked) [Example 4, 6-(Azetidin-1-yl)-N-(2-{[butan-2-yl]oxy}-5-methylbenzene-1-sulfonyl)-4-fluoro-1-benzofuran-2-carboxamide] | 8.72 |  |  | > 2e-05 | 6.3e-08 |  |  | 1.14e-07 | 6.42e-07
O=C(NS(=O)(=O)c1cccc2ccc(Cl)nc12)c1cc2c(F)cc(N3CC(F)C3)cc2o1 [Example 154, N-(2-Chloroquinoline-8-sulfonyl)-4-fluoro-6-(3-fluoroazetidin-1-yl)-1-benzofuran-2-carboxamide] | 13.4 |  |  | > 2e-05 | 7.11e-08 |  |  | 4.95e-08 | 2.25e-07
CCOc1ccc(C(C)(C)C)cc1S(=O)(=O)NC(=O)c1cc2c(F)cc(N3CCC3)cc2o1 [Example 78, 6-(azetidin-1-yl)-N-(5-tert-butyl-2-ethoxybenzene-1-sulfonyl)-4-fluoro-1-benzofuran-2-carboxamide] | 1.41 |  |  | > 2e-05 | 4.95e-09 |  |  | 5.87e-08 | 5.75e-08
COc1cc(C)ccc1S(=O)(=O)NC(=O)c1cc2c(F)cc(N3CCC3)cc2o1 [Example 156, 6-(Azetidin-1-yl)-4-fluoro-N-(2-methoxy-4-methylbenzene-1-sulfonyl)-1-benzofuran-2-carboxamide] | 19.9 |  |  | > 2e-05 | 7.43e-08 |  |  | 1.34e-07 | 6.6e-07
CCCOc1cccc(OCC)c1S(=O)(=O)NC(=O)c1cc2c(F)cc(N3CCC3)cc2o1 [Example 10, 6-(Azetidin-1-yl)-N-(2-ethoxy-6-propoxybenzene-1-sulfonyl)-4-fluoro-1-benzofuran-2-carboxamide] | 7.12 |  |  | > 2e-05 | 1.36e-07 |  |  | 2.21e-07 | 6.61e-07
